# Results as given in patent US6887894B2, “Use of lipoic acid for improving the bioavailability of mineral salts” (BASF Aktiengesellschaft, priority 2000, dated 2005).
# “And” between values parts separate entries of the source, which are not always exact repeats. Equal entries are not always repeated. Marks after values point to notes of the source that are not given here.
# What was measured:
# [1] = in vivo; cited from earlier work
# [2] = Study 1/Study 2: bioavailability of Zn lipoate and ZnSO4 in rats (Example 4, Comparison Example 1); type: in vivo
# Protocol: Male Albino rats (Wistar) of an initial weight of 40 g were used. The animals were kept during each 28-day experimental period at a room temperature of 22° C., a relative humidity of approximately 55% and in a 12-hour light-dark cycle. The rats were housed individually in Makrolon cages with stainless steel bottoms which permitted controlled feed intake and quantitative collection of feces and urine. The feed was provided once a day at 8^00. The live mass of the rats was determined weekly, feces and urine were collected every day at 10^00 and 17^00. At the end of the experiment, the rats were decapitated after chloroform anesthesia. • 4.2 Description of the diets and experimental design
# 6 rats are used per experimental group. The mealy diets were administered ad lib. […] The control group (group 1) received the PA-free base diet.
# The amounts of feces and urine produced separately in the metabolic cages are collected quantitatively every day and stored at −22° C. To avoid any losses of N in the urine collection vessels, 1 ml of 20% strength HCl (Suprapur) is added to each of the vessels daily. For further analysis, the sample material is freeze-dried for 48 h. • 4.3.2 Organ and tissue samples
# The right femur, liver and testes are removed immediately after decapitation and complete exsanguination of the animals and the fresh mass is determined. The samples are sealed in plastic film and stored at −22° C. until further analysis. • 4.3.3 Blood
# The rats are decapitated at the end of the experiment after complete narcosis with chloroform and the blood collected in heparinized plastic tubes. 40 I.U. of heparin sodium are introduced per ml of blood. […]
# Zinc is determined by means of atomic absorption spectrophotometry (AAS) in an acetylene flame. • 4.5 Diagnosis of zinc status • 4.5.1 Determination of the plasma zinc concentration
# The plasma zinc concentration is measured directly in the flame by means of AAS (Philips, PIJ 9400). […]
# The enzyme activity is measured kinetically on a semimicroscale at a wavelength of 405 nm and 25° C. using a UV spectrophotometer. […]
# [3] = Study 3: zootechnical parameters (feed intake, live weight) of growing rats; type: in vivo; settings: for LW Gain: 28 days; for Live weight d0: initial weight
# Protocol: (§1) 36 male Wistar albino rats (Harlan Winkelmann, Borchen) having an initial weight of 47.0±2.63 g were randomly divided into 6 groups each of 6 animals and fed the diets specified in Table 7 (experimental design) and Section 5.2 over a period of 28 days. The animals were kept individually in Makrolon cages on stainless grids under standard conditions (22° C., 55% relative humidity, 12 hour light/dark rhythm). Feed and deionized drinking water were available to the experimental animals ad libitum. During the 2nd and 3rd experimental week (metabolism phase) feces were collected quantitatively. After completion of the experimental phase (day 28), the animals were decapitated under CO2— anesthesia, exsanguinated and the tissue to be analyzed was removed. Groups Ib, IIb and IIIb here are Example 5, while Groups Ia, IIa and IIIa are Comparison Example 2.
# Parameters used to estimate Zn availability were the zootechnical parameters feed intake, live weight development and live weight increase, apparent Zn absorption, alkaline phosphatase activity in plasma, plasma and femur Zn concentration and metallothionin concentration in liver tissue. • 5.2 Experimental diets
# The experimental animals were fed semisynthetic diets based on high-purity components (corn starch, egg albumin protein, sucrose, soybean oil and cellulose) over a period of 28 days (see Table 8 for composition of the base diet), the experimental diets differing with respect to the type of zinc compound supplemented, the absolute Zn concentration and the phytic acid content (0.4% PA from NaPA, Sigma-Aldrich, Steinheim) (see Table 7).
# Zn supplements used were Zn ((R)-α-Lipoat)2(H2O)2 from Example 1 (Example 5) and Zn sulfate (ZnSO4.7 H2O analytical grade, Merck, Darmstadt) (Comparison Example 2). The Zn concentrations of the experimental diets Ia-IIb were set at a level of 10 mg/kg of diet estimated to be marginal for growing rats, in order to enable investigation of the availability of the Zn supplements under test in the suboptimun supply range.
# [4] = Study 3: Zn intake, fecal excretion and apparent absorption of zinc; type: in vivo; settings: rats
# Protocol: as §1
# During the two-week metabolism phase, the rat feces were collected daily, adherent feed residues and other impurities were removed and the samples were stored at −20° C. At the end of the metabolism period the fecal weight was determined quantitatively and feces were then freeze-dried under vacuum over a period of 48 h (Gamma 1-20, Christ, Osterode). The dried samples were finely around using a domestic grinder (Moulinette electronic 89902) and stored at ambient temperature in PE bottles.
# A sample aliquot of 1.5 g or the freeze-dried and ground fecal samples was dried for 24 h at 105° C. to remove residual water and then ashed in a muffle furnace at 450° C. for 21 h. The ash residue was dissolved by acid addition and then analyzed quantitatively. The Zn concentration in the fecal samples was determined by flame-AAS (Philips, PU 9400, Kassel). • 5.3.4 Diagnosis of Zn status
# (§2) Zn absorption was calculated, without taking into account endogenous level as a difference between element […] and fecal excretion (=apparent absorption). Plasma Zn concentration was determined by AAS (Philips, PU 9400, Kassel). The samples were diluted with 0.1 M HCl in a ratio of 1:20 (v/v). The activity of the Zn metalloenzyme alkaline phosphatase (AP) (E.C. 3.1.3.1) wan assayed using the individual chemicals diethanolamine buffer and p-nitrophenyl phosphate according to the recommendations of the […] FÜR […] CHIMIE [German Clinical Chemistry Society] ([…] FÜR […] CHEMIE (1972). Standardmethode zur Bestimmung der Aktivität der alkalischen Phosphatase (AP) [Standard Method for Determining Alkaliur Phosphatase (AP) Activity]. Z. klin. Chem u. klin. Biochemie. 10, 191). • 5.3.5 Metallothionin in liver tissue
# [5] = Study 3: Zn concentration in the femur; type: in vivo; settings: rats; for Zn concentration in Femur: day 28
# Protocol: as §1
# The ash solutions were prepared by the principle of wet ashing. The sample material was admixed with 10 ml of 65% strength HNO3 (Merck, Suprapur) and then boiled under a reflux condenser in a digestion apparatus (Gerhardt SMA-20, Bonn). This oxidatively degraded the organic matrix and completely mineralized the test material. The Zn concentration was determined in the ash solutions by flame-AAS (Philips, PU 9400, Kassel). • 5.3.3 Analysis of the fecal samples
# [6] = test system: alkaline phosphatase (AP) (E.C. 3.1.3.1); test: Study 3: alkaline phosphatase activity in plasma; type: in vivo; settings: rats, day 28
# Protocol: as §1, §2
# metallothionin = test: Study 3: metallothionin in liver tissue; type: in vivo; settings: rats; for Metallothionin concentration in liver tissue: day 28
# Protocol: as §1
# Total MT concentration in liver tissue was determined using the cadmium-binding method of EATON and TOAL (EATON, D. L., TOAL, B. F. (1982): Evaluation of the cadmium/hemoglobin affinity assay for the rapid determination of metallothionein in biological tissues. Toxicol Appl. Pharmacol. 66, 134-142) in a modification tested at the Giessen Institute (LEUNERT, V. (1994): Einfluβ von Zink sowie fetalem Kälberserum, bovinem Serumalbumin und calciummobilisierenden Rezeptoragonlsten auf Metallothionein in primär kultivierten Rattenhepatocyten [Effect of zinc and fecal calf serum, vine serum albumin and calcium-immobilizing receptor agonists on metallothionin in primary cultivations of rat hepatocytes]. Inaugural dissertation at the Institut für Tierernahrung und Ernährungse-physiologie [Institute of Animal Nutrition and Nutritional Physiology] of the University of Cicesen, Verlag Shaker, Aachen, PALLAUF et al. 1995). The protein content in liver homogenates war determined using the Lowry-Folin method (DAWSON, R. M. C. ELLIOTT, D C; JONES, K. M. (1986): Data for biochemical research, 3rd ed., Clarendon Press, New York, 543). • 5.3.5. Statistical analysis
# [7] = 10 ppm Zn, PA-free diet (group I)
# [8] = 20 ppm Zn + 0.4% PA (group III)
smiles,measurement,setting,value
O=C(O)C(=O)O [oxalic acid],effects on Zn bioavailability (results of previous studies),[1],not uniform
O=C(O)c1ccccn1 [picolinic acid],effects on Zn bioavailability (results of previous studies),[1],not uniform
"O=C(O)CCCC[C@@H]1CCSS1 [Zn lipoate, Zn((R)-α-lipoate)2(H2O)2]","zinc deficiency symptoms (anorexia, alopecia, depression of growth)","[2]; diet with 0.4% NaPA, high dose 20 mg Zn/kg of feed, 28 days",disappear completely
same,"Zn status parameters of blood plasma (Zn concentration, free zinc binding capacity, alkaline phosphatase activity) and femur and liver Zn concentration",[2]; in comparison with Zn sulfate,improved
same,Feed intake Total,[3]; 10 ppm Zn + 0.4% PA (group II),186 ^a g/28d
same,Feed intake d1-d7,[3]; 10 ppm Zn + 0.4% PA (group II),39.5 ^ab g
same,Feed intake d8-d14,[3]; 10 ppm Zn + 0.4% PA (group II),46.5 ^a g
same,Feed intake d15-d21,[3]; 10 ppm Zn + 0.4% PA (group II),48.2 ^a g
same,Feed intake d22-d28,[3]; 10 ppm Zn + 0.4% PA (group II),51.3 ^a g
same,Live weight d7,[3]; 10 ppm Zn + 0.4% PA (group II),60.0^ab g
same,Live weight d14,[3]; 10 ppm Zn + 0.4% PA (group II),82.5^a g
same,Live weight d21,[3]; 10 ppm Zn + 0.4% PA (group II),99.1^a g
same,Live weight d28,[3]; 10 ppm Zn + 0.4% PA (group II),114.2^a g
same,LW Gain,[3]; 10 ppm Zn + 0.4% PA (group II),67.0^a g
same,Live weight d0,[3]; 10 ppm Zn + 0.4% PA (group II),47.2 g
same,Feed intake Total,[3]; [7],307 ^b g/28d
same,Feed intake d1-d7,[3]; [7],54.9 ^ab g
same,Feed intake d8-d14,[3]; [7],78.7 ^c g
same,Feed intake d15-d21,[3]; [7],86.9 ^c g
same,Feed intake d22-d28,[3]; [7],86.5 ^b g
same,Live weight d7,[3]; [7],75.6^ab g
same,Live weight d14,[3]; [7],122.5^b g
same,Live weight d21,[3]; [7],159.2^c g
same,Live weight d28,[3]; [7],185.8^c g
same,LW Gain,[3]; [7],138.7^c g
same,Live weight d0,[3]; [7],47.1 g
same,Feed intake Total,[3]; [8],300 ^b g/28d
same,Feed intake d1-d7,[3]; [8],60.0 ^b g
same,Feed intake d8-d14,[3]; [8],77.3 ^c g
same,Feed intake d15-d21,[3]; [8],79.2 ^bc g
same,Feed intake d22-d28,[3]; [8],83.5 ^b g
same,Live weight d7,[3]; [8],77.9^b g
same,Live weight d14,[3]; [8],119.1^b g
same,Live weight d21,[3]; [8],147.4^bc g
same,Live weight d28,[3]; [8],173.2^bc g
same,LW Gain,[3]; [8],125.9^bc g
same,Live weight d0,[3]; [8],47.3 g
same,"total feed intake, change owing to Zn-α-lipoate feeding","[3]; 28-day period, versus Zn sulfate groups",increase
same,"live weight gain, Zn lipoate compared with Zn sulfate","[3]; in each case (groups I, II, III)",increase
same,"absolute Zn absorption, Zn lipoate group versus Zn sulfate group","[4]; 20 mg Zn/kg of diet + 0.4% PA (groups IIIa, IIIb)",statistically significant higher
same,Apparent absorption of Zn,[4]; 10 ppm Zn + 0.4% PA (group II),47.3 ^a %
same,Apparent absorption of Zn (absolute),[4]; 10 ppm Zn + 0.4% PA (group II),0.446 ^a mg/14 d
same,Fecal excretion of Zn,[4]; 10 ppm Zn + 0.4% PA (group II),0.494 ^a mg/14 d
same,Apparent absorption of Zn,[4]; [7],73.6 ^b %
same,Apparent absorption of Zn (absolute),[4]; [7],1.24 ^b mg/14 d
same,Fecal excretion of Zn,[4]; [7],0.445 ^a mg/14 d
same,Apparent absorption of Zn,[4]; [8],48.4 ^a %
same,Apparent absorption of Zn (absolute),[4]; [8],1.60 mg/14 d and 1.60 ^c mg/14 d
same,Fecal excretion of Zn,[4]; [8],1.71 ^b mg/14 d
same,"apparent Zn absorption (%), effect of Zn lipoate supplementation","[4]; PA diets, group IIa to IIb and IIIa to IIIb",increase
same,Zn concentration in Femur,[5]; 10 ppm Zn + 0.4% PA (group II),41.2 ^a μg/g FW
same,Zn concentration in Femur,[5]; [7],79.2 ^c μg/g FW
same,Zn concentration in Femur,[5]; [8],64.1 ^b μg/g FW
same,"level of Zn incorporation into the femur tissue, compared with Zn sulfate",[5]; with addition of phytate,beneficial effect
same,Alkaline Phosphatase activity in plasma,[6]; 10 ppm Zn + 0.4% PA (group II),225 ^a mU/ml Plasma
same,Alkaline Phosphatase activity in plasma,[6]; [7],365 ^b mU/ml Plasma
same,Alkaline Phosphatase activity in plasma,[6]; [8],384 ^b mU/ml Plasma
same,Metallothionin concentration in liver tissue,metallothionin; 10 ppm Zn + 0.4% PA (group II),7.94 ng MT/mg Protein
same,Metallothionin concentration in liver tissue,metallothionin; [7],8.32 ng MT/mg Protein
same,Metallothionin concentration in liver tissue,metallothionin; [8],8.71 ng MT/mg Protein
same,"hepatic MT concentration, Zn lipoate versus ZnSO4 as Zn source","metallothionin; all groups (I, II and III)",nominal increases
